# Columns and labels:
# Type in all cases: functional
# [1] = tested on: Mycobacterium tuberculosis; assay: Antitubercular activity against Isoniazid-resistant Mycobacterium tuberculosis assessed as parasite growth inhibition by REMA method
# [2] = tested on: Mycobacterium tuberculosis; assay: Antitubercular activity against multidrug-resistant Mycobacterium tuberculosis assessed as parasite growth inhibition by REMA method
# [3] = tested on: Mycobacterium tuberculosis; assay: Antitubercular activity against Rifampicin-resistant Mycobacterium tuberculosis assessed as parasite growth inhibition by REMA method
# [4] = tested on: Mycobacterium tuberculosis; assay: Ratio of isoniazid IC50 to compound IC50 for Isoniazid-resistant Mycobacterium tuberculosis by REMA method
SMILES,MIC90 [1],MIC90 [2],MIC90 [3],Ratio [4]
NNC(=O)c1ccncc1 [ISONIAZID],467 µM,117 µM,,
O=C1NC(c2c[nH]c3ccc(Br)cc23)Nc2ccccc21 (stereo not drawn),46.9 µM,188 µM,46.9 µM,
CC[C@@H](CO)NCCN[C@@H](CC)CO [ETHAMBUTOL],,626 µM,,
O=C1NC(c2c[nH]c3ccc(I)cc23)Nc2ccccc21 (stereo not drawn),10.3 µM,20.7 µM,5.2 µM,>12
CO[C@H]1/C=C/O[C@@]2(C)Oc3c(C)c(O)c4c(O)c(c(/C=N/N5CCN(C)CC5)c(O)c4c3C2=O)NC(=O)/C(C)=C\C=C\[C@H](C)[C@H](O)[C@@H](C)[C@@H](O)[C@@H](C)[C@H](OC(C)=O)[C@@H]1C [RIFAMPIN],0.07 µM,38.9 µM,311 µM,
